Assay results from article PMC9127186, “Molecular Basis Underlying Hepatobiliary and Renal Excretion of Phenolic Acids of Salvia miltiorrhiza Roots (Danshen)” (Frontiers in Pharmacology, 2022).

Columns and labels:
[1] = molecular target: T1, human OAT4 (Homo sapiens, UniProt Q9NSA0); experiment: Cellular transport assay, HEK-293 cells expressing human OAT4; details: positive substrate 20 μM, 10 min; human OAT4
T1 sequence (Q9NSA0 1-550): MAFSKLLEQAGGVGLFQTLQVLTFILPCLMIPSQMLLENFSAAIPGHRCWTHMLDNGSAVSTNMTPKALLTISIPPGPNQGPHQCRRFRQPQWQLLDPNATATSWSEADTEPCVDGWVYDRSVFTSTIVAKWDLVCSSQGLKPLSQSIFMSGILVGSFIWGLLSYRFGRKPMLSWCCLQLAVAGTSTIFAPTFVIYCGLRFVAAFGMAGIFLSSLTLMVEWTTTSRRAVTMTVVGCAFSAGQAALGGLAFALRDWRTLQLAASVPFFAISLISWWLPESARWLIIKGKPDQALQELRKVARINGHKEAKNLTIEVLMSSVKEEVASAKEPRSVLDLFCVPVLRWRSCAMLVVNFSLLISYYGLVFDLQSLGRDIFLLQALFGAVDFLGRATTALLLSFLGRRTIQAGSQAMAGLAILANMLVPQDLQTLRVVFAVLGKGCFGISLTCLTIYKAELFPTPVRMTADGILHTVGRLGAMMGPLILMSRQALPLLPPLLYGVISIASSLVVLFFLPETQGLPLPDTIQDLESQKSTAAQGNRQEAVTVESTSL
Description: (§1) Briefly, HEK-293 cells were grown, at 37°C and 5% CO2, in Dulbecco’s modified Eagle’s medium, which was fortified with 10% fetal bovine serum, 1% minimal essential medium nonessential amino acids, and 1% antibiotic-antimycotic solution. A day before transfection, cells were seeded onto 24-well poly-D-lysine-coated plates at a density of 2 × 10^5 cells per well. After incubation at 37°C and 5% CO2 for 24 h, the expression plasmid and the empty vector were introduced separately into the HEK293 cells with Lipofectamine 2000 transfection reagent (Invitrogen, Carlsbad, CA, United States), according to the manufacturer’s protocol to yield transporter-expressing cells and mock cells, respectively.
(§2) Transport studies were performed 48 h after the transfection. […] Differential uptake between the transfected cells and mock cells was defined as net transport ratio (TransportTC/TransportMC ratio), where TransportTC and TransportMC are the transport rates of a test Danshen compound into transfected and mock cells, respectively. […] The determination was performed under linear uptake conditions by incubation for 5 min. Table 1 summarizes the final concentrations of the test Danshen compounds for different transporters. All the incubation samples were analyzed by liquid chromatography/mass spectrometry.
(§3) GraFit software (version 5.0; Erithacus Software Ltd, Surrey, United Kingdom) was used to determine the K m and V max values by nonlinear regression analysis of initial transport rates as a function of substrate concentration.

[2] = molecular target: T2, rat Oat3 (Rattus norvegicus, UniProt Q9R1U7); experiment: Cellular transport assay, HEK-293 cells expressing rat Oat3; details: positive substrate 20 μM, 10 min; rat Oat3
T2 sequence (Q9R1U7 1-536): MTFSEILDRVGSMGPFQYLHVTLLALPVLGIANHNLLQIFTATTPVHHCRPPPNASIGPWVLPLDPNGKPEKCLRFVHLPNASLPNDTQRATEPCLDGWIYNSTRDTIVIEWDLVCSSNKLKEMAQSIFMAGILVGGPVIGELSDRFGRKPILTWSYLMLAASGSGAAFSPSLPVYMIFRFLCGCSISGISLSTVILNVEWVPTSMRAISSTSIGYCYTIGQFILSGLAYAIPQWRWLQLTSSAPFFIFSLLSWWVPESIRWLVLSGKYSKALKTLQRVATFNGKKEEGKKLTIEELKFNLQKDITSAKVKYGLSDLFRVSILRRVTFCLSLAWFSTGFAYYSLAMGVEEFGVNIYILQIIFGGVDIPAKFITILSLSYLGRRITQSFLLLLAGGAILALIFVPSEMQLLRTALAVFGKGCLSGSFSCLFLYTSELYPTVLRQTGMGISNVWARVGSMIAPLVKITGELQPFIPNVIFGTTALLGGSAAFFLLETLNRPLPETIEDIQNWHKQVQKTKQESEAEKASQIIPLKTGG
Description: as §1, §2, §3

[3] = molecular target: T3, human OAT3 (Homo sapiens, UniProt Q8TCC7); experiment: Cellular transport assay, HEK-293 cells expressing human OAT3; details: positive substrate 20 μM, 10 min; human OAT3
T3 sequence (Q8TCC7 1-542): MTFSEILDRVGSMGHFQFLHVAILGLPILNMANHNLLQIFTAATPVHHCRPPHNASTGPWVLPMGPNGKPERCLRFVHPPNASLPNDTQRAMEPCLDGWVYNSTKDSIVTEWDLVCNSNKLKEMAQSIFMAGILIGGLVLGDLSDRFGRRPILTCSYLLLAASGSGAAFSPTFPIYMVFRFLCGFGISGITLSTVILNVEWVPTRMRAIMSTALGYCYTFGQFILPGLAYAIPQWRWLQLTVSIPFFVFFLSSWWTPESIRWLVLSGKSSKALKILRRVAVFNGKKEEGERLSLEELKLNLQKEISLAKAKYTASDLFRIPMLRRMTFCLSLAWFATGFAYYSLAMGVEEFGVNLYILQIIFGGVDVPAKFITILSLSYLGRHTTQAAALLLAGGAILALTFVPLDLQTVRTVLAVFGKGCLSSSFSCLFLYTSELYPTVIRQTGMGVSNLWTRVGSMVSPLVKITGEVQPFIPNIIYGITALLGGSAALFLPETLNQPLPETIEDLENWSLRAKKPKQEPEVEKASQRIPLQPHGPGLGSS
Description: as §1, §2, §3

[4] = molecular target: T4, human OATP2B1 (Homo sapiens, UniProt O94956); experiment: Cellular transport assay, HEK-293 cells expressing human OATP2B1; details: positive substrate 20 μM, 10 min; human OATP2B1
T4 sequence (O94956 1-709): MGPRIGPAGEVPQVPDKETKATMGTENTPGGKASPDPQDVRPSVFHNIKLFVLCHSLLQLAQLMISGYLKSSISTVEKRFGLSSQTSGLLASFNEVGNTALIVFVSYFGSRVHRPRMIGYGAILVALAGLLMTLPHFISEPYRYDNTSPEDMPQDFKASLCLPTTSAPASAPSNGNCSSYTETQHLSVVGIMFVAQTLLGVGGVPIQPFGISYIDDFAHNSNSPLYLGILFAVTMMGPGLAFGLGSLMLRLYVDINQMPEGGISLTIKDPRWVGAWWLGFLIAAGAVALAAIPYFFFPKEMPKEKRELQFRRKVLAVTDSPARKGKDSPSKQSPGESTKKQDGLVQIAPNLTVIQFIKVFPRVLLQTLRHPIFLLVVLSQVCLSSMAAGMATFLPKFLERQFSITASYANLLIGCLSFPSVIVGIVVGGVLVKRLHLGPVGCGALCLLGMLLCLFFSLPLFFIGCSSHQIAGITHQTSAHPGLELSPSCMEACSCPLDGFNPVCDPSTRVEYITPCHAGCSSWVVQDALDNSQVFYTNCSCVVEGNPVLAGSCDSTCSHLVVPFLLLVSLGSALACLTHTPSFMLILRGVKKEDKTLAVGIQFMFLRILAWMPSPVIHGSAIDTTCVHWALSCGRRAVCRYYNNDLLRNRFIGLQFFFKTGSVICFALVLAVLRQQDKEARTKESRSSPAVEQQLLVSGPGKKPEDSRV

For `C[C@]12CC[C@@H]3c4ccc(OS(=O)(=O)O)cc4CC[C@H]3[C@@H]1CCC2=O` [E1S, estrone-3-sulfate, reference compound], the “TransportTC/TransportMC ratio, positive substrate” value (shortened to “TransportTC/TransportMC ratio”) [1] was 7.69 ± 1.74 (E1S), the “TransportTC/TransportMC ratio” value [2] was 21.4 ± 6.8 (E1S) and the “TransportTC/TransportMC ratio” value [3] was 10.2 ± 1.2 (E1S). For the same compound, the “TransportTC/TransportMC ratio” value [4] was 41.1 ± 1.5 (E1S).
